Results on twelve compounds are retold here after ChEMBL document CHEMBL1201862, “PubChem BioAssay data set” (2004).

Test systems include UACC-62; UACC-257; MDA-N; HOP-62; M14; PC-3; COLO 205; NCI-H460; MOLT-4; SN12C; HT-29; CCRF-CEM; RPMI-8226; A498; OVCAR-5; SF-539; SK-MEL-28; SNB-75; Malme-3M; HOP-92.
Assay in all cases: NCI tumour cell line growth inhibition, 48 h

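96-well plates; 48 h exposure; 5 concentrations. Endpoints by linear interpolation between flanking doses. Not reached: highest tested concentration assigned. GI50: concentration for 50% inhibition of growth.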 The source made the active and inactive calls. Rule as the data show it: active = GI50 up to about 1.1 µM and inactive = higher. Bounds are passed on as bounds.

For the compound `COc1ccc(C2C=C(c3ccccc3)Nc3nnnn32)cc1` (stereo not given), the GI50 is 50.4 µM (inactive) with UACC-62; 98.4 µM (inactive) in the test on UACC-257; 45.1 µM (inactive) with MDA-N; 25.5 µM (inactive) in the test on HOP-62; 68.2 µM (inactive) in the test with M14; 49 µM (inactive) in the test with PC-3. The GI50 is > 100 µM (inactive) with COLO 205; 45 µM (inactive) in the test with NCI-H460; > 100 µM (inactive) in the test with MOLT-4; > 100 µM (inactive) with SN12C; 18.1 µM (inactive) with HT-29; > 100 µM (inactive) in the test with CCRF-CEM. In addition, the GI50 in the test on RPMI-8226 was 51.9 µM (inactive); in the test with A498, 34.4 µM (inactive); in the test on OVCAR-5, 37.7 µM (inactive); in the test with SF-539 it was 23.7 µM (inactive).

As to `O=C1NC(=S)N/C1=C\c1cccs1`, the GI50 in the test on UACC-62, in the test with MDA-N, with HOP-62, in the test with M14, in the test on PC-3 and in the test on COLO 205 was > 100 µM (inactive) throughout. In addition, the GI50 in the test with SK-MEL-28, in the test on MOLT-4, in the test on SN12C, with HT-29, with CCRF-CEM and in the test with RPMI-8226 was > 100 µM (inactive) each time. Also, the GI50 in the test with SNB-75, in the test with OVCAR-5, with Malme-3M and in the test on SF-539 was > 100 µM (inactive) throughout.

Consider `CCC1(CC)C(=O)N(C(=O)c2ccc(Cl)cc2)N(C(=O)c2ccccc2Cl)C1=O`, for which the GI50 is 85.3 µM (inactive) with UACC-62; > 100 µM (inactive) in the test on UACC-257; 39.7 µM (inactive) in the test with MDA-N; 46 µM (inactive) in the test on HOP-62; > 100 µM (inactive) in the test on M14; > 100 µM (inactive) in the test with PC-3. The GI50 with COLO 205 was > 100 µM (inactive); in the test with NCI-H460 it was 19.3 µM (inactive); in the test on SK-MEL-28 it was 98.4 µM (inactive); with MOLT-4, 20.6 µM (inactive); in the test on SN12C it was 45.1 µM (inactive); in the test on HT-29, 10.7 µM (inactive). Further, the GI50 with CCRF-CEM was 40.8 µM (inactive); in the test on RPMI-8226, 25.8 µM (inactive); in the test on SNB-75 it was 16.1 µM (inactive); in the test on OVCAR-5 it was > 100 µM (inactive); with Malme-3M, 35.7 µM (inactive).

As for `CC1CC/C(=C\c2ccc(F)cc2)C2=C1C(c1ccc(F)cc1)n1c(s/c(=C\c3ccc(Cl)cc3)c1=O)=N2` (stereo not given), the GI50 with UACC-62, in the test with HOP-92, in the test on UACC-257, with MDA-N, in the test on HOP-62 and in the test on M14 was > 100 µM (inactive) in each case. Besides, the GI50 with PC-3, with SK-MEL-28, with MOLT-4, with SN12C, in the test on HT-29 and with CCRF-CEM was > 100 µM (inactive) each time. In addition, the GI50 in the test on RPMI-8226, with A498 and with OVCAR-5 was > 100 µM (inactive) each time.

In the case of `CCOC(=O)C1=COC(C)(C)CC1=O`, the GI50 in the test with UACC-62, in the test with UACC-257, with MDA-N, in the test on HOP-62, with M14 and in the test with PC-3 was > 100 µM (inactive) each time. For the same compound, the GI50 with COLO 205, in the test with NCI-H460, with SK-MEL-28, in the test with MOLT-4, with SN12C and with HT-29 was > 100 µM (inactive) throughout. The GI50 in the test with RPMI-8226, in the test with A498, with SNB-75, with OVCAR-5 and in the test on SF-539 was > 100 µM (inactive) throughout.

For `COc1ccc2cc(CNCCCCCCNCc3ccc4cc(OC)ccc4c3)ccc2c1`, the GI50 was 1.46 µM (inactive) with UACC-62; 1.83 µM (inactive) in the test on UACC-257; 0.183 µM (active) in the test on MDA-N; 1.64 µM (inactive) with HOP-62; 0.169 µM (active) in the test with M14; 0.471 µM (active) with PC-3. Besides, the GI50 was 0.154 µM (active) in the test with COLO 205; 0.255 µM (active) in the test with NCI-H460; 0.471 µM (active) in the test on SK-MEL-28; 0.205 µM (active) with MOLT-4; 1.33 µM (inactive) in the test with SN12C; 0.186 µM (active) with HT-29. Also, the GI50 in the test with CCRF-CEM was 0.153 µM (active); in the test on RPMI-8226 it was 0.208 µM (active); with A498, 1.58 µM (inactive); with SNB-75 it was 0.815 µM (active); in the test with OVCAR-5, 0.885 µM (active); with Malme-3M it was 1.05 µM (active). In addition, the GI50 with SF-539 is 1.51 µM (inactive).

`CN1N=C(c2ccncc2)OC1c1ccc(Cl)cc1Cl` (stereo not given): the GI50 in the test with UACC-62 is 22.8 µM (inactive); in the test on UACC-257, > 100 µM (inactive); in the test on MDA-N, > 100 µM (inactive); with HOP-62, > 100 µM (inactive); with M14 it was 95.3 µM (inactive); in the test with PC-3 it was 63.1 µM (inactive). Also, the GI50 with COLO 205 was 36.1 µM (inactive); in the test on NCI-H460, > 100 µM (inactive); in the test with SK-MEL-28 it was > 100 µM (inactive); in the test with MOLT-4 it was 42 µM (inactive); in the test with SN12C, 75.3 µM (inactive); with HT-29, 59.2 µM (inactive). For the same compound, the GI50 in the test with CCRF-CEM is 48.6 µM (inactive); in the test on RPMI-8226, 72.8 µM (inactive); with A498 it was 49.9 µM (inactive); in the test with SNB-75 it was 12.6 µM (inactive); in the test with OVCAR-5, > 100 µM (inactive); with SF-539, 44.5 µM (inactive).

For `CC#CCCCC1(C)CCNC1=S` (stereo not given), the GI50 in the test with HOP-92, with UACC-257, in the test on MDA-N, in the test on M14, in the test with PC-3 and in the test on NCI-H460 was > 10 µM (inactive) each time. Besides, the GI50 in the test with MOLT-4, with SN12C, in the test with HT-29, with CCRF-CEM, in the test on SNB-75 and with OVCAR-5 was > 10 µM (inactive) throughout. The GI50 with Malme-3M and in the test on SF-539 was > 10 µM (inactive) throughout.

On to `CCOC(=O)C(Cl)(NC(=O)c1c(F)c(F)c(F)c(F)c1F)C(F)(F)F` (stereo not given), for which the GI50 was > 100 µM (inactive) with UACC-62; 28.3 µM (inactive) in the test with HOP-92; > 100 µM (inactive) in the test with UACC-257; > 100 µM (inactive) with MDA-N; > 100 µM (inactive) in the test with HOP-62; > 100 µM (inactive) in the test with M14. The GI50 in the test on PC-3, with COLO 205, with SK-MEL-28, in the test with MOLT-4, in the test with SN12C and with HT-29 was > 100 µM (inactive) each time. The GI50 with CCRF-CEM, with RPMI-8226, with SNB-75, in the test on OVCAR-5, in the test with Malme-3M and with SF-539 was > 100 µM (inactive) in each case.

`CSc1c(C#N)c(N)n(-c2ccc(C)cc2)c(=O)c1C#N`: the GI50 in the test with UACC-62, in the test on UACC-257, in the test with MDA-N, with M14, in the test on PC-3 and in the test with COLO 205 was > 100 µM (inactive) throughout. Also, the GI50 with NCI-H460 was > 100 µM (inactive); in the test with SK-MEL-28 it was > 100 µM (inactive); with MOLT-4 it was > 100 µM (inactive); in the test with SN12C it was > 100 µM (inactive); in the test with HT-29, > 100 µM (inactive); with CCRF-CEM, 94.8 µM (inactive). The GI50 with RPMI-8226 was > 100 µM (inactive); in the test with A498 it was 50.8 µM (inactive); with SNB-75 it was > 100 µM (inactive); in the test on OVCAR-5, > 100 µM (inactive); with Malme-3M it was > 100 µM (inactive); in the test on SF-539, > 100 µM (inactive).

Take `CS/C=C\C(=O)O[C@H]1C[C@@H]2[C@@H](O)c3occ(C)c3C[C@]2(C)[C@@H](C)C1`: the GI50 in the test with UACC-62 was 17.9 µM (inactive); with HOP-92, 25.8 µM (inactive); in the test on UACC-257, 14.8 µM (inactive); in the test on MDA-N it was 20.3 µM (inactive); in the test on HOP-62, 23.2 µM (inactive); in the test on M14, 20.3 µM (inactive). The GI50 in the test on PC-3 was 41.2 µM (inactive); with COLO 205, 17.9 µM (inactive); with NCI-H460, 21.6 µM (inactive); in the test on SK-MEL-28 it was 19.8 µM (inactive); in the test on MOLT-4, 20.7 µM (inactive); in the test on SN12C, 16 µM (inactive). Moreover, the GI50 with HT-29 was 22.6 µM (inactive); with CCRF-CEM, 27.3 µM (inactive); with RPMI-8226 it was 30.4 µM (inactive); in the test on OVCAR-5 it was 34.8 µM (inactive); in the test on Malme-3M, 18.3 µM (inactive); in the test on SF-539, 21.7 µM (inactive).

With `c1ccc2[nH]c3[nH]c4[nH]c5ccccc5[nH]c4[nH]c3[nH]c2c1`, the GI50 with UACC-62, in the test on UACC-257, in the test on MDA-N, in the test on HOP-62, in the test with M14 and in the test with PC-3 was > 100 µM (inactive) in each case. The GI50 with COLO 205, in the test with NCI-H460, in the test on SK-MEL-28, with MOLT-4, in the test with SN12C and with HT-29 was > 100 µM (inactive) in each case. The GI50 is > 100 µM (inactive) with CCRF-CEM; > 100 µM (inactive) with RPMI-8226; > 100 µM (inactive) in the test on A498; 21 µM (inactive) with SNB-75; 44.5 µM (inactive) in the test with OVCAR-5; > 100 µM (inactive) in the test with Malme-3M. Also, the GI50 with SF-539 was > 100 µM (inactive).
